pIC50: −log10 of the molar value. Where “and” joins values, the source holds several entries; their conditions need not be identical. Equal entries are not always repeated.
Assays:
[1] = 1H NMR titration with TBACl, Cl− binding; conditions: association constant towards Cl−, compound 2.5 mM, 95% DMSO-d6, 1:1 binding model (Bindfit), errors below 10%
Method: To verify if 1–6 formed host–guest complexes with Cl^− in solution, ^1H NMR titrations of each compound (2.5 mM) with TBACl were carried out in DMSO-d6. Increasing equivalents of Cl^− were incrementally added, with spectral information obtained upon addition of each molar equivalent of Cl^−. […] Taking 1 as an example (Fig. 2), upon addition of sequential aliquots of Cl^− there is a clear downfield shift of both squaramide NHs, with minor contributions to the binding cleft derived from the ortho-aryl protons of the aniline of 1. The binding data from each titration was fitted to a 1 : 1 binding model using the Bindfit[36] open access software, and the results are tabulated below (Table 1), alongside the respective Hammett constant for the relevant substitution pattern.[37] […] This aligns with previously reported receptors,[38] where compounds containing CF3 substituents in particular are known to have increased anion binding affinity as well as transport ability.[39]

[2] = Lucigenin Cl−/NO3− exchange assay in LUVs; conditions: Cl− transport, 0.4 mM POPC/cholesterol 7:3 LUVs, Hill fit at 270 s
Method: Given our objective was to use such transport behaviour as a method to disrupt anion homeostasis in bacteria, we also conducted anion transport assays in Large Unilamellar Liposomes (LUVs) using the well-established Lucigenin-based Cl^−/NO3^− exchange assay.[40] Briefly, LUVs containing the chloride sensitive dye lucigenin in a NaNO3 solution were prepared and a NaCl pulse was added to create a chloride concentration gradient. Upon addition of the putative transporter, the quenching of the fluorescence of lucigenin was monitored over time to assess Cl^− influx.
Lucigenin Cl-/NO3- anion exchange assay
LUV preparation and Lucigenin assays were carried out following procedures outlined by Valkenier and co-workers.8 Large unilamellar liposomes (LUVs) were synthesized using 1-palmitoyl-2-oleoyl-sn-glycero-3-phosphocholine (POPC)(11.2 µmol, soln. in CHCl3) and Cholesterol (4.8 µmol) mixed in a ratio of 7:3. This mixture was brought to dryness under gentle vacuum and subsequently, the mixture was rehydrated in an aqueous Lucigenin solution (1 mL, 0.8mM lucigenin in 225 mM NaNO3) and stirred for 1 h to obtain heterogeneous vesicles. After that, the vesicles underwent 9 freeze-thaw cycles and were extruded through a […] polycarbonate membrane 29 times to obtain monodisperse LUVs. A Sephadex G-100 size-exclusion column was employed to remove any unencapsulated lucigenin. The collected liposomes were diluted to 40 mL with 225 mM NaNO3 to obtain a homogeneous 0.4 mM liposome solution. Lucigenin fluorescence quenching was monitored in a time dependent manner using an Agilent Spectrofluorimeter to access Cl- influx (λ ex = 430 nm, λem = 505 nm).
Cl- transport behaviour was initiated at t=0 s by adding each compound as a solvate in DMSO followed by a 25 mM NaCl pulse (75µL, 1 M NaCl in […] NaNO3) to a 3 mL liposome solution. The data was collected for at least 600 s and then Triton X-100 (5% w/w in water) was added to lyse the liposomes, and normalize to 100% efflux. The recorded data was normalised and the fraction fluorescence intensity at 270 s of each tested concentration of transporters (mol%) was plotted against transporter concentration (mol%). The data obtained was fitted to the Hill equation to obtain the EC50 value at 270 s (the concentration to obtain the half maximum effect) by using Originlab 2024b or Graphpad Prism 10:
y = START + (END ‒ START) ∗ xn/(kn + xn)
Where n is the Hill coefficient, k presents the EC 50 value.

S. aureus = test: Growth inhibition assay, S. aureus; assay type: cell-based, Staphylococcus aureus; conditions: 24 h, growth (OD 600 nm) relative to control, 37 °C; for IC80 / pIC50: Staphylococcus aureus
Method: (§1) To determine IC50/80 values, growth (optical density) of S. aureus, methicillin-resistant S. aureus (MRSA), P. aeruginosa, and K. pneumoniae when treated with a range of concentrations of each active compound in vitro was measured at 600 nm after a 24 h incubation period at 37 °C. Each compound was studied for activity below […], and those showing little activity above 200 μM, were noted as such, and omitted from further study.
Staphylococcus aureus culture conditions
S. aureus (ATCC33951) was cultured at 37 °C in Nutrient broth (Oxoid), in an orbital shaker at 200 rpm. Stocks were kept on nutrient agar, stored at 4 °C for up to 2 months, or as glycerol stocks (50/50 glycerol:culture), stored at -70 °C indefinitely. […]
(§2) Bacterial cultures were brought to early stationary phase overnight, in nutrient broth (containing 25/50 µg/mL Ampicillin for MRSA/K. pneumoniae, respectively) at 37 °C. Cultures were diluted to an OD600 = 0.01. Aliquots of Culture (100 µl) were added to 100 µL serially diluted compound (200 – 0.78 µM) in nutrient broth in a 96-well plate (Sarstedt, Germany).
(§3) Plates were incubated at 37 °C for 24 h and growth was measured at 600 nm, where growth was measured and represented relative to control. […]

[3] = system: methicillin-resistant S. aureus (MRSA); test: Growth inhibition assay, MRSA; assay type: cell-based, Staphylococcus aureus; conditions: 24 h; for pIC50 / IC80: Staphylococcus aureus, MRSA; for pIC50: read-out: MRSA IC50, growth (OD 600 nm) relative to control, 24 h, 37 °C; for IC80: read-out: MRSA IC80, growth (OD 600 nm) relative to control, 24 h, 37 °C; for MRSA IC50: growth (OD 600 nm) relative to control, 37 °C
Method: as §1
Staphylococcus aureus culture conditions […]
Methicillin-resistant Staphylococcus aureus culture conditions
Methicillin-resistant S. aureus (clinical isolate – St. James’ University Hospital, Dublin) was cultured at 37 °C in Nutrient broth (Oxoid), containing 25 µg/mL Ampicillin in an orbital shaker at 200 rpm. Stocks were kept on nutrient agar containing 25 µg/mL Ampicillin, stored at 4 °C for up to 2 months, or as glycerol stocks (50/50 glycerol:culture), stored at -70 °C indefinitely. […]
as §2, §3

[4] = system: panel of Gram-positive and -negative pathogens; test: Zone of inhibition assay; assay type: cell-based; conditions: 5 μL of 1 mM stock on nutrient agar, 37 °C, 24 h; radius ≤ 2 mm deemed not active
Method: To do this, a zone of inhibition assay was used as a qualitative measure of activity. To do so, 5 μL of a 1 mM stock of the respective compound was pipetted atop nutrient agar which was previously spread with a panel of Gram-positive and -negative pathogens of interest. Following incubation at 37 °C for 24 h, zones of inhibition were measured and recorded for each compound. Zones with a radius ≤ 2 mm were deemed as not active, and thus eliminated from further study.

[5] = parameters: method as in doi:10.1021/jo01097a026; conditions: for the relevant substitution pattern; cited from earlier work

| SMILES | K a [1] [M⁻¹] | EC50 (mol%) [2] | IC80 (S. aureus) [µM] | pIC50 (S. aureus) | S. aureus IC50 (S. aureus) | pIC50 [3] | IC80 [3] [µM] | MRSA IC50 [3] | zone of inhibition, qualitative measure of activity [4] | Hammett parameter (σ) [5] |
| --- | --- | --- | --- | --- | --- | --- | --- | --- | --- | --- |
| O=c1c(Nc2ccccc2Cl)c(NC23CC4CC(CC(C4)C2)C3)c1=O [Compound 5] | 44 | 1.349 mol% | > 200 | < 3.70 | lay outside the concentration range tested | < 3.70 | > 200 | lay outside the concentration range tested | promising bioactivity |  |
| O=c1c(Nc2ccc(Cl)cc2)c(NC23CC4CC(CC(C4)C2)C3)c1=O [Compound 3] | 207 | 0.2597 mol% and 0.260 mol% | > 200 | < 3.70 | lay outside the concentration range tested | < 3.70 | > 200 | lay outside the concentration range tested | promising bioactivity | 0.23 |
| O=c1c(Nc2ccccc2)c(NC23CC4CC(CC(C4)C2)C3)c1=O [Compound 6] | 138 |  | > 200 | < 3.70 | lay outside the concentration range tested | < 3.70 | > 200 | lay outside the concentration range tested |  | 0.0 |
